According to article PMC11066877, “Development and Characterization of Novel FAP-Targeted Theranostic Pairs: A Bench-to-Bedside Study” (Research, 2023):

Tests used:
[1] = Stability of 177Lu-labeled radiopharmaceuticals in FBS and PBS; assay type: in vitro ADME; details: 50% FBS and 50% PBS, checked at 2 h and 24 h
Experimental: To perform ^68Ga-labeling, approximately 20 nmol of FD1, FD2, or FD3 was dissolved in 20 μl of dimethyl sulfoxide and 230 μl of sterile deionized water. This mixture was added to 400 μl of ^68GaCl3 solution (containing 37 MBq) in 0.1 M HCl, with pH adjusted to 4.0 using 0.1 M NH4OAC. The mixture was incubated at 100 °C for 10 min without any additional purification steps. For ^177Lu-labeling, high-purity radionuclide ^177LuCl3 in 0.04 M HCl (3.9 GBq in 97 μl) was purchased from ITM (Munich, Germany). ^177LuCl3 solution (555 MBq in 0.04 M HCl) was added to 500 μl of 1M NH4OAC (pH = 5), followed by the addition of 375 nmol of FD1, FD2, or FD3. The solution was shaken at a temperature of 100 °C for a duration of 30 min. Instant thin-layer chromatography (iTLC; Eckert & Ziegler Radiopharma Inc.) was used to evaluate the RCP of the final products. For iTLC, the mobile phase consisted of 1 M NH4OAC and methyl alcohol in a ratio of 1:1. The final solution must be adjusted to pH 7.0 before being injected into the experimental mice via the tail vein. The stability of ^177Lu-labeled radiopharmaceuticals was evaluated in a mixture of 50% FBS and 50% PBS at 2 h and 24 h after preparation. In the process of preparing each [^68Ga]Ga-DOTA-FD1 for clinical imaging, the end product underwent sterilization by passing it through a 0.22-μm Millipore filter.

[2] = Ex vivo biodistribution of 177Lu-labeled radioligands in tumor-free nude mice; details: mouse, intravenous, 1.11 MBq, total radioactivity
Excerpt: After imaging collection and image reconstruction, samples from euthanized experimental mice, including blood and multiple significant organs, were harvested and weighed. The radioactivity in each collected tissue was counted using an automated gamma counter (Wizard 2480, PerkinElmer) and the accumulation of radioactivity in different tissues and organs was quantified and expressed as %ID/g (mean ± SD). [^177Lu]Lu-DOTA-FD1 (~1.11 MBq, n = 3), [^177Lu]Lu-DOTA-FD2 (~1.11 MBq, n = 3), and [^177Lu]Lu-DOTA-FD3 (~1.11 MBq, n = 3) were injected into the tail vein of free nude mice at 6 h, 24 h, and 24 h for ex vivo biodistribution to verify the circulation time of the 3 probes in vivo. Biodistribution data from tumor-bearing mice injected with [^177Lu]Lu-DOTA-FD3 at 45 h (~1.11 MBq, n = 4) and 90 h (~1.11 MBq, n = 3) validated the prolonged enrichment of the probe at the tumor site. At the end of each probe imaging and radioactivity counting study, tumor tissues were fixed in paraformaldehyde tissue fixative. Briefly, sections of 10 μm were cut and stained for H&E following the standard protocols. IHC staining with a FAP antibody (ab227703, Abcam) was performed only on tumor tissues following accepted techniques.

HT1080-FAP tumor = test: FAP-targeted radioligand therapy in HT1080-FAP tumor models; assay type: in vivo, mice
Experimental: HT1080-FAP tumor models with higher levels of FAP expression were utilized in this study. Tumor-bearing mice were subjected to therapy experiments when the tumor volume reached 50 to 180 mm^3. Tumor models with different tumor volumes were injected with different therapeutic doses. Mice bearing HT1080-FAP tumors of slightly larger tumor volumes were randomly assigned into 4 groups (n = 5 per group): control group and treatment groups with 800 μCi of [^177Lu]Lu-DOTA-FD1, 400 μCi of [^177Lu]Lu-DOTA-FD3, and 600 μCi [^177Lu]Lu-DOTA-FD3. Mice bearing HT1080-FAP tumors of slightly smaller tumor volumes were also divided into 4 groups (n = 6 per group): control group and treatment groups with 200 μCi of [^177Lu]Lu-DOTA-FD1, 200 μCi of [^177Lu]Lu-DOTA-FD2, and 200 μCi of [^177Lu]Lu-DOTA-FD3. Tumor volume and mice body weight were examined daily after a single-dose injection. Weight monitoring is expressed as a percentage of initial weight on the measurement day. Tumor volume was measured as half of the length × width squared times. Mice were euthanized when the tumor volume exceeded 1,500 mm^3, the tumor ruptured, or when it lost more than 20% of its body weight. T3M-4 tumor models with abundant stroma were established to validate the therapeutic efficacy of [^177Lu]Lu-DOTA-FD3. When the tumor volume grew to 100 to 150 mm^3, the mice were randomly divided into 2 groups (n = 7 per group): free ^177Lu treatment group and 500 μCi [^177Lu]Lu-DOTA-FD3 treatment group. Tumor volume and mice body weight were examined every 2 days.

[3] = microPET/CT imaging, ROI analysis, BxPC-3 tumor models; assay type: in vivo, mice; details: nude (thymus-free), mouse, intravenous, 3 MBq, 4 h p.i.
Experimental: (§1) A human pancreatic cancer cell line BxPC-3 and a murine pancreatic cancer cell Panc-02 were obtained from the American Type Culture Collection. The pancreatic cancer cell line T3M-4 was purchased by MeisenCTCC (Zhejiang, China). BxPC-3 and T3M-4 cell lines were grown in RPMI 1640 medium (Shanghai BasalMedia Technologies Co., LTD.) containing 10% FBS (GE Healthcare, Chicago, IL, USA) and 1% penicillin–streptomycin solution (Invitrogen). To culture the Panc-02 cell line, a medium called Dulbecco’s modified Eagle medium from Shanghai BasalMedia Technologies Co., LTD. was used, which consisted of 10% FBS. The cell line HT-1080 was grown in MEM medium (Shanghai BasalMedia Technologies Co., LTD.) supplemented with 10% FBS, 1% penicillin-streptomycin solution, and 1% nonessential amino acids (NEAA-11140050; Gibco). A human fibrosarcoma cell line was stably transfected with FAP (HT1080-FAP) and cultured, as we previously described. All cell lines were cultured in a humid incubator with 5% CO2 at a temperature of 37 °C. Approval was granted by the Institutional Animal Care and Use Committee (Renji Hospital, School of Medicine, Shanghai Jiao Tong University) for all experimental protocols and procedures related to animal care. Panc-02 cells were implanted by subcutaneous injection of 5 × 10^6 tumor cells suspended in 100 μl PBS and matrigel matrix (Corning) with equal volume into the upper limb flank of C57BL/6 mice (Shanghai Sheng Chang Biotechnology Co., Ltd.). Four- to 6-week-old thymus-free nude mice (GemPharmatech) were subcutaneously inoculated with BxPC-3, T3M-4, HT-1080, and HT1080-FAP cells (5 × 10^6 in 100 μl of PBS mixing with 100 μl matrigel matrix) in the right shoulder. […]
(§2) MicroPET imaging was performed on isoflurane-anesthetized mice injected intravenously via the lateral tail vein with around 3 MBq (2.5 nmol) of the radioligand at certain times. […] The information was analyzed using OsiriX Lite software (Pixmeo SARL) and Inveon Research Workplace (Siemens Preclinical Solutions). […]

[4] = microPET/CT imaging, ROI analysis, HT-1080 tumor models; assay type: in vivo, mice; details: nude (thymus-free), mouse, intravenous, 3 MBq, 4 h p.i.
Experimental: as §1, §2

[5] = microPET/CT imaging, ROI analysis, Panc-02 tumor models; assay type: in vivo, mice; details: C57BL/6, mouse, intravenous, 3 MBq, 4 h p.i.
Experimental: as §1, §2

Row | SMILES | stable in FBS and PBS, no significant demetallation [1] | tissue uptake at 24 h ([2]; blood, 24 h p.i., read-out: accumulation in the blood pool (biodistribution)) [%ID/g] | tumor growth at the end of the study (HT1080-FAP tumor; average tumor volume 50 mm^3 at onset, single dose 200 μCi) | mice that acquired complete response (CR) (HT1080-FAP tumor; average tumor volume 50 mm^3 at onset, single dose 200 μCi, 6 mice per group) | tissue uptake at 4 h [3] [%ID/g] | tissue uptake at 4 h [4] [%ID/g] | tissue uptake at 4 h [5] [%ID/g] | tissue uptake at 6 h ([2]; kidney, 6 h p.i., read-out: radioactivity uptake in kidneys (biodistribution)) [%ID/g] | tumor volume versus control group (HT1080-FAP tumor; average tumor volume 180 mm^3 at onset, single dose 800 μCi)
1 | CCCCCC(=O)N[C@H]1CSCc2cc(CSCCNC(=O)[C@H](CCCCNC(=O)CCCc3ccc(I)cc3)NC(=O)CN3CCN(CC(=O)O)CCN(CC(=O)O)CCN(CC(=O)O)CC3)cc(c2)CSC[C@@H](C(=O)O)NC(=O)[C@H](Cc2ccccc2)NC(=O)[C@H](CCC(N)=O)NC(=O)[C@H]([C@@H](C)O)NC(=O)[C@@H]2CCCN2C(=O)[C@@H]2CCCN2C1=O [[^177Lu]Lu-DOTA-FD2, metal not drawn] | at least 24 h | 31.8 ± 2.24 | substantially inhibited the tumor growth | 1 of the 6 |  |  |  |  | 
2 | CCCCCC(=O)N[C@H]1CSCc2cc(CSCCNC(=O)[C@H](CCCCNC(=O)CCCc3ccc(I)cc3)NC(=O)[C@@H](NC(=O)[C@H](CCSC)NC(=O)CN3CCN(CC(=O)O)CCN(CC(=O)O)CCN(CC(=O)O)CC3)C(C)C)cc(c2)CSC[C@@H](C(=O)O)NC(=O)[C@H](Cc2ccccc2)NC(=O)[C@H](CCC(N)=O)NC(=O)[C@H]([C@@H](C)O)NC(=O)[C@@H]2CCCN2C(=O)[C@@H]2CCCN2C1=O [[^68Ga]Ga-DOTA-FD3, metal not drawn] |  |  |  |  | 7.07 ± 0.45 | 9.97 ± 0.42 | 7.03 ± 1 |  | 
3 | CCCCCC(=O)N[C@H]1CSCc2cc(CSCCNC(=O)[C@H](CCCCN)NC(=O)[C@@H](NC(=O)[C@H](CCSC)NC(=O)CN3CCN(CC(=O)O)CCN(CC(=O)O)CCN(CC(=O)O)CC3)C(C)C)cc(c2)CSC[C@@H](C(=O)O)NC(=O)[C@H](Cc2ccccc2)NC(=O)[C@H](CCC(N)=O)NC(=O)[C@H]([C@@H](C)O)NC(=O)[C@@H]2CCCN2C(=O)[C@@H]2CCCN2C1=O [[^177Lu]Lu-DOTA-FD1, metal not drawn] | at least 24 h |  |  |  |  |  |  | 30.4 ± 3.1 | no difference in tumor volume
